Drawing on ChEMBL document CHEMBL4177697, “N-Me-trichodermamide B isolated from Penicillium janthinellum, with antioxidant properties through Nrf2-mediated signaling pathway” (Bioorg Med Chem, 2017), this text covers Activity for two molecules.

Active and inactive are the calls of the source. The calls are words filed in the database; no cut-off is given here.

The test system of data set [1] is A549. The data set is described as follows: Cytotoxicity against human A549 cells at 10 uM. It is filed as functional, cell-based.
Data set [2] has as its system PC-9. As to the kind of experiment: Cytotoxicity against human PC9 cells at 10 uM. It counts as functional, cell-based.
Data set [3] has as its system HepG2. The data set is described as follows: Cytotoxicity against human HepG2 cells at 10 uM. It counts as functional, cell-based.
Data set [4] concerns the target T1, MAP kinase p38 (Homo sapiens) (UniProt O15264+Q15759+Q16539+P53778). As to the kind of experiment: Activation of MAPK p38 in human HaCaT cells assessed as upregulation of Nrf2 mRNA expression at 20 uM measured up to 6 hrs RT-qPCR analysis. It counts as cell-based.
Data set [5] has as its target T1, MAP kinase p38 (Homo sapiens). The data set is described as follows: Activation of MAPK p38 in human HaCaT cells assessed as nuclear translocation of Nrf2 at 20 uM after 6 hrs by DAPI staining-based immunofluorescence microscopic method. It is filed as cell-based.
Data set [6] shares this target. As to the kind of experiment: Activation of MAPK p38 in human HaCaT cells assessed as nuclear translocation of Nrf2 at 10 uM measured after 6 hrs Western blot analysis. It is filed as cell-based. Background: Immunoblotting shows a protein as a band on a membrane.
The test system of data set [7] is HaCaT. The data set is described as follows: Cytotoxicity against human HaCaT cells assessed as reduction in cell viability at 5 to 20 uM after 24 to 48 hrs by WST-8 assay. It is filed as cell-based. On the technique in general: Tetrazolium assays rely on reduction of a dye to a coloured formazan, in cell work by metabolically active cells.
For data set [8], the system named is HaCaT. As to the kind of experiment: Cytoprotective activity against H2O2-induced cell damage in human HaCaT cells assessed as cell survival preincubated for 20 hrs followed by H2O2 addition measured after 4 hrs by WST-8 assay. It counts as functional, cell-based.
Data set [9] has as its target T1, MAP kinase p38 (Homo sapiens). The data set is described as follows: Activation of MAPK p38 in human HaCaT cells assessed as upregulation of Nrf2 mRNA expression measured up to 6 hrs RT-qPCR analysis. It is filed as cell-based. In general terms: Quantitative PCR measures a nucleic acid by following its amplification.
The subject of data set [10] is HaCaT. The data set is described as follows: Induction of ARE promoter activity in human HaCaT cells transfected with Nrf2-siRNA at 5 to 20 uM after 6 hrs by luciferase reporter gene assay. It is filed as functional, cell-based.
The target in data set [11] is T2, Nuclear factor erythroid 2-related factor 2 (Homo sapiens) (UniProt Q16236).
T2 sequence (whole entry): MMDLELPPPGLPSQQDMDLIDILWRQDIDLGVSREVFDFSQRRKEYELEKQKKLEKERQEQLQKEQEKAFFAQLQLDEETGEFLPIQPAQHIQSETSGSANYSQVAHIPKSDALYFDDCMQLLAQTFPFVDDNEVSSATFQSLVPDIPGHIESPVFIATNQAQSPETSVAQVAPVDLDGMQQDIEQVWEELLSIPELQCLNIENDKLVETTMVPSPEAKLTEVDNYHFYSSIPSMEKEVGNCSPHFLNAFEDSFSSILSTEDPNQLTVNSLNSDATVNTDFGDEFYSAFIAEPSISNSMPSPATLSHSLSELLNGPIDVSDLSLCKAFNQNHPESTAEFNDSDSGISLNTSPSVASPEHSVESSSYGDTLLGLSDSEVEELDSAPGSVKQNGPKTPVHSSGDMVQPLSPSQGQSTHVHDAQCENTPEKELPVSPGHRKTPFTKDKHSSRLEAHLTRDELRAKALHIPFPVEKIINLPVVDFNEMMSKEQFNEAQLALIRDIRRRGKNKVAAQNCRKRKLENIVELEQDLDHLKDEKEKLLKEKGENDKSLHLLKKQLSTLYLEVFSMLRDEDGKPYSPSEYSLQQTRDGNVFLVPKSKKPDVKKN
As to the kind of experiment: Activation of Nrf2 in human HaCaT cells assessed as increase in HO-1 expression level at 20 uM by Western blot analysis. To be noted: TDE = time-dependent effect. It is filed as cell-based.

The test system of data set [12] is HaCaT. The data set is described as follows: Upregulation of Nrf2 protein expression in human HaCaT cells transfected with Nrf2-siRNA at 20 uM after 6 hrs by Western blot analysis. It counts as functional, cell-based.
The target in data set [13] is T2, Nuclear factor erythroid 2-related factor 2 (Homo sapiens). As to the kind of experiment: Activation of Nrf2 in human HaCaT cells assessed as increase in HO-1 mRNA expression at 20 uM by Western blot analysis. To be noted: TDE = time-dependent effect. It counts as cell-based.
Data set [14] has the same target. The data set is described as follows: Activation of Nrf2 in human HaCaT cells transfected with ARE-luciferase containing ARE consensus sequence assessed as Nrf2 binding to ARE at 20 uM after 6 hrs by luciferase reporter gene assay. It counts as cell-based.
For data set [15], the target named is T1, MAP kinase p38 (Homo sapiens). As to the kind of experiment: Activation of MAPK p38 in human HaCaT cells assessed as nuclear translocation of Nrf2 measured after 6 hrs by Western blot analysis. It is filed as cell-based.
Data set [16] shares this target. As to the kind of experiment: Induction of MAPK p38 phosphorylation in human HaCaT cells at 20 uM after 2 hrs in presence of MAPK p38 inhibitor SB239063 by Western blot analysis. It is filed as cell-based.
Data set [17] has the same target. As to the kind of experiment: Activation of MAPK p38 in human HaCaT cells assessed as upregulation of Nrf2 protein expression in nucleus at 20 uM after 6 hrs in presence of MAPK p38 inhibitor SB239063 by Western blot analysis. It counts as cell-based.
Data set [18] has as its target T2, Nuclear factor erythroid 2-related factor 2 (Homo sapiens). The data set is described as follows: Activation of Nrf2 in human HaCaT cells assessed as increase in HO-1 mRNA expression after 12 hrs by RT-qPCR analysis. It counts as cell-based.
The test system of data set [19] is HaCaT. As to the kind of experiment: Upregulation of HO-1 protein expression in human HaCaT cells transfected with Nrf2-siRNA at 20 uM after 6 hrs by Western blot analysis. It is filed as functional, cell-based.
For data set [20], the target named is T2, Nuclear factor erythroid 2-related factor 2 (Homo sapiens). As to the kind of experiment: Activation of Nrf2 in human HaCaT cells assessed as upregulation of HO-1 protein expression at 20 uM after 12 hrs in presence of MAPK p38 inhibitor SB239063 by Western blot analysis. It counts as cell-based.
In data set [21] the target is T1, MAP kinase p38 (Homo sapiens). The data set is described as follows: Induction of MAPK p38 phosphorylation in human HaCaT cells at 20 uM up to 6 hrs by Western blot analysis. It is filed as cell-based.
The target in data set [22] is T2, Nuclear factor erythroid 2-related factor 2 (Homo sapiens). The data set is described as follows: Activation of Nrf2 in human HaCaT cells assessed as increase in HO-1 expression level after 12 hrs by Western blot analysis. It counts as cell-based.

On to `COc1ccc2cc(NC(=O)C3=NO[C@H]4[C@H](O)C=C[C@@H](Cl)[C@@]4(O)C3)c(=O)oc2c1OC`, for which the outcome in data set [1], in data set [2] and in [3] was Active.

In the case of `COc1ccc2cc(N(C)C(=O)C3=NO[C@H]4[C@H](O)C=C[C@@H](Cl)[C@@]4(O)C3)c(=O)oc2c1OC`, the outcome in data set [4], in data set [5], in data set [6], in [1], in data set [2] and in data set [14] was Active. Besides, the outcome in data set [21] and in data set [3] was Active. Also, the Activity result in [7] was “Non-Toxic”; in data set [8] it was “Dose-dependent effect”; in data set [9], “Dose-dependent effect”; in data set [11], “Tde”; in [13] it was “Tde”; in [15], “Dose-dependent effect”. The Activity entry in [18] and in data set [22] was “Dose-dependent effect” each time. Also, the outcome in data set [10], in data set [12], in [16], in data set [17], in [19] and in data set [20] was inactive.
